Earlier results, collected in patent publication US20040043073A1, “Pharmaceutical compositions for drugs having pH-dependent solubility” (priority 2002, published 2004).
Like-named read-outs stand apart in the source and are kept apart here.

solubility (in the stomach (pH 1.2)): very soluble | solubility (lower small intestine (pH 6 to 8)): solubility decreases | solubility (upper region of the small intestine (pH 5.0)): fairly soluble
SMILES: CC[C@H]1OC(=O)[C@H](C)[C@@H](O[C@H]2C[C@@](C)(OC)[C@@H](O)[C@H](C)O2)[C@H](C)[C@@H](O[C@@H]2O[C@H](C)C[C@H](N(C)C)[C@H]2O)[C@](C)(OC)C[C@@H](C)C(=O)[C@H](C)[C@@H](O)[C@]1(C)O [clarithromycin, 6-O-methylerythromycin A]
